Reference: ChEMBL document CHEMBL5113518, “Discovery of a Novel G-Quadruplex and Histone Deacetylase (HDAC) Dual-Targeting Agent for the Treatment of Triple-Negative Breast Cancer” (J Med Chem, 2022)
Activity calls are given as the source filed them. The rule behind the calls is not given here.

Experiments:
Quadruplex DNA [1] = assay: Binding affinity to 5' FAM-labeled […] (unknown origin) assessed as dissociation constant by surface plasmon resonance assay; type: nucleic-acid assay
BT-549 = assay: Inhibition of colony formation in human BT-549 cells measured for 7 days by crystal violet staining based assay; type: functional, cell-based; settings: dose 2.5 µM, time 7.0 day, DDE = dose-dependent effect
[2] = Stabilization of DNA Pu22 (unknown origin ) single strand assessed as G4-quadruplex formation up to 30 uM in presence of potassium ions by spectrum based circular dichroism analysis
[3] = Elimination half life in Sprague-Dawley rat at 2 mg/kg, iv measured up to 24 hrs by LC-MS/MS analysis; type: ADME, organism-based; settings: in vivo, read-out: beta t1/2 (converted)
MDA-MB-231 [4] = assay: Antitumor activity against human MDA-MB-231 cells xenografted in BALB/c-nu/nu mouse assessed as tumor growth inhibition at 2.5 mg/kg, ip measured for 31 days; type: functional; settings: MDA-MB-231, 744 h, time 31 day, read-out: TGI
MDA-MB-231 [5] = assay: Effect on metabolism in human MDA-MB-231 cells assessed as reduction in glycolysis at 2.5 uM measured after 48 hrs by seahorse XF24 analysis; type: functional, cell-based
MDA-MB-231 [6] = assay: Stabilization of DNA Pu22 (unknown origin ) in human MDA-MB-231 cells assessed as G4-quadruplex formation by measuring fold change at 2.5 uM incubated for 6 hrs by immunofluorescence based confocal laser scanning microscopic analysis; type: cell-based
MDA-MB-231 [7] = assay: Antitumor activity against human MDA-MB-231 cells xenografted in BALB/c-nu/nu mouse assessed as reduction in tumor growth at 2.5 mg/kg, ip measured for 31 days; type: functional, organism-based; settings: time 31.0 day
SUM-159-PT = assay: Induction of DNA damage in human SUM159PT at 1.25 to 5 uM assessed as increase in gamma-H2AX level and measured for 48 hrs by DAPI staining method; type: functional, cell-based; settings: dose 1.25-5 µM
[8] = Inhibition of full length recombinant N-terminal GST-tagged human HDAC11 expressed in baculovirus infected Sf9 insect cells incubated for 50 mins by Glo- luminescence assay; type: cell-based
Quadruplex DNA [9] = assay: Binding affinity to 5' FAM and 3' TAMRA-labeled c-myc G4-quadruplex DNA HTG21 (unknown origin) assessed as change in melting temperature by fluorescence resonance energy transfer assay; type: nucleic-acid assay
Quadruplex DNA [10] = settings: dose 1.0 µM
Description: Binding affinity to 5' FAM and 3' TAMRA-labeled c-myc G4-quadruplex DNA Pu22 (unknown origin) assessed as change in melting temperature at 1 uM by fluorescence resonance energy transfer assay

Quadruplex DNA [11] = assay: Binding affinity to […]' FAM-labeled c-myc G4-quadruplex DNA Pu22 (unknown origin) by fluorescence quench assay; type: nucleic-acid assay
[12] = molecular target: T1, Histone deacetylase (Homo sapiens) (UniProt Q13547+O15379+Q9UBN7+Q92769+Q9UQL6+Q8WUI4+Q9BY41+Q96DB2+P56524+Q9UKV0+Q969S8); assay: Inhibition of HDAC in human BT-549 cells assessed as increase in acetylated alpha-tubulin level at 1.25 to 5 uM by Western blot analysis; type: cell-based; settings: dose 1.25-5 µM
Quadruplex DNA [13] = assay: Binding affinity to 5' FAM-labeled c-myc G4-quadruplex DNA HTG21 (unknown origin) assessed as dissociation constant by surface plasmon resonance assay; type: nucleic-acid assay
Histone deacetylase 8 = molecular target: T2, Histone deacetylase 8 (Homo sapiens, UniProt Q9BY41); assay: Inhibition of full length recombinant N-terminal GST-tagged human HDAC8 expressed in baculovirus infected Sf9 insect cells incubated for 50 mins by Glo- luminescence assay
T2 sequence (Q9BY41 whole entry): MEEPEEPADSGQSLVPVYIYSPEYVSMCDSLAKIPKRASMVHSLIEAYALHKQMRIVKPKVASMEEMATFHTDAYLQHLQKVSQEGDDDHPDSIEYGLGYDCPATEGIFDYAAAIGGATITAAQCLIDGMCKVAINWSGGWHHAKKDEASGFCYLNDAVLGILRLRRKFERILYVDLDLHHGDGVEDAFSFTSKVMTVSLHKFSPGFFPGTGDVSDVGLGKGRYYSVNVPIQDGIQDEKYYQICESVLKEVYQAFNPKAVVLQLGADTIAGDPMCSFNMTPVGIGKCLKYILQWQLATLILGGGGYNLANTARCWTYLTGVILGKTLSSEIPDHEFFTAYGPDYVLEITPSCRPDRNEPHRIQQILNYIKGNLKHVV

MDA-MB-231 [14] = assay: Antitumor activity against human MDA-MB-231 cells xenografted in BALB/c-nu/nu mouse assessed as reduction in tumor volume at 2.5 mg/kg, ip measured for 31 days; type: functional, organism-based; settings: time 31.0 day
[15] = Stabilization of DNA Pu22 (unknown origin ) single strand assessed as G4-quadruplex formation in absence of potassium ions by spectrum based circular dichroism analysis; settings: dose <= 30.0 µM; DDE = dose-dependent effect
HeLa = assay: Potency index, ratio of SAHA IC50 to test compound IC50 for inhibition of HDAC in human HeLa nuclear extract
MDA-MB-468 = assay: Cytotoxicity against human MDA-MB-468 cells harboring wild type BRCA1 and BRCA2 mutant reduction in assessed as cell viability; type: functional, cell-based
Histone deacetylase = assay: Inhibition of HDAC in human MDA-MB-231 cells incubated for 45 mins by luminescence assay; type: cell-based
[16] = molecular target: T1, Histone deacetylase (Homo sapiens); assay: Inhibition of HDAC in human SUM159PT cells assessed as increase in acetylated alpha-tubulin level at 1.25 to 5 uM by Western blot analysis; type: cell-based; settings: dose 1.25-5 µM

In the case of `CN(C)CCCNC(=O)c1ccc(/C=C2\CCn3c2nc2cc(N4CCN(CCCCCCCC(=O)NO)CC4)c(F)cc2c3=O)cc1.Cl`, the Kd (Quadruplex DNA [1]) is reported as 4.5 µM, the inhibition (BT-549) is reported as “Dde” and the Activity [2] is reported as “Active”. The half-life [3] was 7.4 h, the inhibition in vivo at 2.5 mg/kg (MDA-MB-231 [4]) was 69% and the Activity (MDA-MB-231 [5]) was “Active”. The Activity (MDA-MB-231 [6]) was “Active”, the Activity (MDA-MB-231 [7]) was “Active” and the Activity (SUM-159-PT) was “Active”. It also gave an IC50 [8] of 1.38 µM, a ΔTm (Quadruplex DNA [9]) of 2 °C and a ΔTm (Quadruplex DNA [10]) of 16.7 °C. For the same compound, the DC50 (Quadruplex DNA [11]) was 0.1 µM, the inhibition [12] was “Active” and the Kd (Quadruplex DNA [13]) was greater than 10 µM. The IC50 (Histone deacetylase 8) was 0.03 µM, the Activity (MDA-MB-231 [14]) was “Active” and the Activity [15] was “Dde”. The Ratio IC50 (HeLa) was 20, the IC50 (MDA-MB-468) was 3.3 µM and the IC50 (Histone deacetylase) was 1.1 µM. The inhibition [16] was “Active”.
